Reference: US20120003270A1, “6-SUBSTITUTED ISOFLAVONOID COMPOUNDS AND USES THEREOF” (priority 2008, published 2012)

How the values were obtained:
5-lipoxygenase (5-LO) = test: Synthesis of LTB4 and its metabolites in calcium ionophore-stimulated neutrophils (HPLC); format: cell-based, human; settings: for IC50: Neutrophil, human neutrophils, calcium ionophore, read-out: IC50 for the production of LTB4
Protocol: The pathway for LTB4 synthesis involves initial release of AA from phospholipids by a Ca-dependent PLA2. The free AA is then oxygenated at by 5-LO (requiring enzyme activation by FLAP) to generate an epoxide intermediate (LTA4). LTA4 is then converted to LTB4 by LTA4 hydrolase. LTB4 is metabolised (and deactivated) by a cytochrome P-(CYP) 450 […] to produce 20-hydroxy and 20-carboxy metabolites. These metabolites are also measured in the HPLC assay.
Neutrophils were isolated from citrated human venous blood to >90% purity by centrifugation through Ficoll, dextran sedimentation and lysis of erythrocytes (Boyum 1986). Cells were washed in HEPES buffered Hanks solution (HBHS) and then suspended at 4.5 million cells/mL in HBHS containing 0.1% BSA (HBHS+BSA).
Experiments had been carried out previously to optimise the stimulation of neutrophils by calcium ionophore. At 37° C., 900 μL of cell suspension (4 million cells) was incubated with 3′,7-dihydroxyisoflav-3-ene (or vehicle) in 10 μL DMSO for 5 min before addition of 100 μL of 25 ng/μL calcium ionophore (free acid form, Sigma) with 0.5% DMSO in HBHS containing 0.1% bovine serum albumin (HBHS+BSA). The cells were incubated for 10 min then pelleted by centrifugation at 1200× g at 4° C. for 5 min, and the cell free supernatant used to quantitate the levels of LTB4 and its metabolites.
To each 900 μL aliquot of the supernatant, 25 μL of 2.5 ng/μL prostaglandin B2 (PGB2) in ethanol was added as internal standard. The solution was acidified to […] with 2M formic acid and the mixture extracted with 2 mL ethyl acetate and vigorous vortexing. The organic layer was collected and dried under nitrogen in a glass vial before being reconstituted in 50 μL of the reconstitution solution (water:methanol:acetonitrile at 2:1:1).
Analysis was carried out using a HPLC system with a 125-4 LiChrospher®100 RP-18 (5 μm) column (Agilent Technologies) and a gradient system adapted from a published method (Mita et al. 1988) to separate LTB4, its oxidation products 20-hydroxy LTB4 (20-OH-LTB4) and 20-carboxy LTB4 (20-COOH-LTB4), as well as PGB2. At 1 ml/min flow rate, a combination of three different mobile phase solutions were used. UV absorbance was monitored at 270 nm, and LTB4 and its metabolites were quantitated by comparison of peak areas with that of internal standard and a standard curve prepared earlier.

prostacyclin (PGI2) = test: 6-keto PGF1α (prostacyclin) synthesis in IL-1β stimulated HUVECs (RIA); format: cell-based, human; settings: overnight, mean+SEM, n=3
Protocol: Cultured human umbilical vein endothelial cells (HUVECs—Vascular Biology Laboratory, Hanson Institute, Adelaide SA) were removed harvested in 0.25% trypsin-EDTA. After quenching and further washing in RPMI-10% FCS, the cells were resuspended in fresh medium at 1-1.5×10^5 cells per ml and plated out in gelatin coated wells at 2 ml per well. After incubation overnight in 5% CO2 at 37° C., the medium was refreshed and the cells returned to the incubator and allowed to equilibrate for approximately 2 h. Test compounds at concentrations of 0, 1, 10 or 100 μM were added to the cells, and 30 minutes later, stimulated by interleukin-1β (IL-1β-10 μl of a 2 ng/ml solution). After overnight incubation at 37° C., supernatants were collected by centrifugation at 2000 rpm for 5 min and stored at −20° C. Production of prostacyclin after overnight incubation was measured by radioimmunoassay (RIA). Because PGI2 is labile in aqueous medium, the stable hydrolysis product 6-keto PGF1α, was measured as a surrogate marker. Results are expressed as mean+SEM, n=3. Differences between means were analysed by one-way ANOVA followed by Tukey's test for multiple comparisons. Differences between means were regarded as significant when p<0.05.

[1] = Free radical scavenging (DPPH); format: biochemical; settings: DPPH 0.1 mM, 20 minutes, 517 nm; read-out: Free radical scavenging ability EC50
Protocol: The antioxidant (free radical trapping) activity of test compounds was assessed using the stable free radical compound 2,2-diphenyl-1-picrylhydrazyl (DPPH). A stock solution of DPPH was prepared at a concentration of 0.1 mM in ethanol and mixed for 10 minutes prior to use. Compound (1) was reacted with DPPH for 20 minutes, after which time the absorbance at 517 nm was determined. The change in absorbance at 517 nm was compared to a reagent blank (DPPH with ethanol alone). The IC50 value was estimated as the concentration of the test compound that caused a 0.6 change in absorbance (with 1.2 absorbance units representing total scavenging of the DPPH radical).

red blood cells (RBC) = test: Peroxyl radical (AAPH)-induced red blood cell lysis; format: cell-based; settings: test compounds at 1 μM; AAPH 150 mM; vehicle 40.0
Protocol: Freshly collected heparinised venous blood (10 ml, on ice) was aliquotted into 1.8 ml sterile eppendorf tubes and centrifuged for 10 minutes at 2600 rpm at 4° C. Plasma and buffy coat layers were removed (approximately 900 μl) and packed red blood cells (RBC) were then washed by the addition of 900 μl of sterile, ice cold PBS. This washing procedure was repeated twice. Packed RBC were resuspended by the addition of 900 μl of ice-cold, sterile PBS (and termed RBC stock). RBC stocks were stored at 4° C. for a maximum of three days. All working suspensions of RBC were prepared fresh daily by diluting 200 μl of RBC stock into 10 ml of ice-cold, sterile PBS and 50 μl added to each well.
Stocks of AAPH were freshly prepared for individual experiments as follows. […] Turbidity of RBC suspensions were monitored using a Tecan microplate reader at 690 nm (37° C.) with gentle vortexing. Assays were performed in quadruplicate and readings were taken every 5 minutes over 5 hours. RBC lysis curves were constructed by plotting absorbance (mean of 4 readings) against time. Time to half-lysis was calculated by taking the highest absorbance reading (no lysis) and the lowest absorbance reading (maximum lysis). The sum of these two readings divided by two gave the absorbance at half-lysis. Simple regression analysis was used to calculate the time at which half-lysis absorbance occurred.

Row | Compound | 20-COOH-LTB4, % of maximum release (5-lipoxygenase (5-LO); 0.1 μM) | 20-OH-LTB4, % of maximum release (5-lipoxygenase (5-LO); 0.1 μM) | LTB4, % of maximum release (5-lipoxygenase (5-LO); 0.1 μM) | 20-COOH-LTB4, % of maximum release (5-lipoxygenase (5-LO); 1 μM) | 20-OH-LTB4, % of maximum release (5-lipoxygenase (5-LO); 1 μM) | LTB4, % of maximum release (5-lipoxygenase (5-LO); 1 μM) | 20-COOH-LTB4, % of maximum release (5-lipoxygenase (5-LO); 10 μM) | 20-OH-LTB4, % of maximum release (5-lipoxygenase (5-LO); 10 μM) | LTB4, % of maximum release (5-lipoxygenase (5-LO); 10 μM) | IC50 (5-lipoxygenase (5-LO)) | PGF1α (prostacyclin (PGI2); 1 μM) | PGF1α (pg/ml) (prostacyclin (PGI2); 10 μM) | PGF1α (prostacyclin (PGI2); 100 μM) | EC50 [1] | Time taken to reach half-lysis, time (red blood cells (RBC)) | PGF1α (prostacyclin (PGI2); 10 μM)
1 | O=C(O)C1CCCN1Cc1cc2c(cc1O)OCC(c1ccc(O)cc1)=C2 (stereo not drawn) [Compound (3)] | 114.9% | 82.8% | 93.6% | 105.7% | 99.0% | 97.0% | 145.2% | 6.1% | 0.0% | 5.4 µM | 0.353 ± 0.045 pg/mL | 0.335 ± 0.039^ pg/ml | 0.308 ± 0.065 pg/mL | 13.6 µM | 88.6 min | –
2 | CN(C)Cc1cc2c(cc1O)OCC(c1ccc(O)cc1)=C2 [Compound (1)] | 82.0% | 95.2% | 94.3% | 99.6% | 77.7% | 78.1% | 0.0% | 0.0% | 0.0% | 4.3 µM | 0.667 ± 0.088 pg/mL | – | 0.277 ± 0.07 pg/mL | 18.8 µM | 154.6 min | 0.584 ± 0.059 pg/mL
